Source: patent US12410194B2, “Potent and selective azaindole inhibitors of CDK8 and CDK19” (priority 2019, dated 2025)

Molecular target: CDK8/cyclin C (Homo sapiens (Human), UniProt P49336)
Assay: LanthaScreen Eu Kinase Binding Assay for CDK8/cyclin C
Details: 10-point curve, 4-fold dilution series, 60 min at room temperature

Sequence of CDK8/cyclin C (P49336 whole entry, looked up): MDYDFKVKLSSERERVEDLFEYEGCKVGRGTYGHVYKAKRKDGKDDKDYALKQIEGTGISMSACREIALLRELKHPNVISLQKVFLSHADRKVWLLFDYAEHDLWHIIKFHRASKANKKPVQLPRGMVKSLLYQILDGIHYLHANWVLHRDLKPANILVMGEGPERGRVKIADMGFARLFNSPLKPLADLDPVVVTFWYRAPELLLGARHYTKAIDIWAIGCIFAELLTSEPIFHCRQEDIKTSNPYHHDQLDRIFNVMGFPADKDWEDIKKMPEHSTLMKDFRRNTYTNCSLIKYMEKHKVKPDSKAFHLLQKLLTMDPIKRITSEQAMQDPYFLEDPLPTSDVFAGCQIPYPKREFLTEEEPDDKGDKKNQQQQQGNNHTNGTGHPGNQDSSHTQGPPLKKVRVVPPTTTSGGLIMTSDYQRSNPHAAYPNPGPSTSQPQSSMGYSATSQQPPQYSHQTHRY
Sequence of CDK8/cyclin C (P24863 whole entry partner, looked up): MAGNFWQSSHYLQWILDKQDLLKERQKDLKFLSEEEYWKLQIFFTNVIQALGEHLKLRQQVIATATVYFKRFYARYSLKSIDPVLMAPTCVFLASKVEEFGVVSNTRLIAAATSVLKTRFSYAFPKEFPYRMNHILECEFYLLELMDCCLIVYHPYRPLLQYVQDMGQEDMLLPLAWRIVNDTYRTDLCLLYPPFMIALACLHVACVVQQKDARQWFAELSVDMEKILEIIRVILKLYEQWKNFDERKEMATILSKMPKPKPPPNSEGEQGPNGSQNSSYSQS

SMILES | IC50
O=C1NCCC12CCN(c1c(-c3ccc4scnc4c3)cnc3[nH]ccc13)CC2 [Compound 002, 8-(5-(benzo[d]thiazol-5-yl)-1H-pyrrolo[2,3-b]pyridin-4-yl)-2,8-diazaspiro[4.5]decan-1-one] | 6.46 nM
O=C1NCCC12CCN(c1c(-c3ccc4ncsc4c3)cnc3[nH]ccc13)CC2 [Compound 004, 8-(5-(benzo[d]thiazol-6-yl)-1H-pyrrolo[2,3-b]pyridin-4-yl)-2,8-diazaspiro[4.5]decan-1-one] | 24.5 nM
Cn1cnc2cc(-c3cnc4[nH]ccc4c3N3CCC4(CCNC4=O)CC3)ccc21 [Compound 005, 8-(5-(1-methyl-1H-benzo[d]imidazol-5-yl)-1H-pyrrolo[2,3-b]pyridin-4-yl)-2,8-diazaspiro[4.5]decan-1-one] | 32.2 nM
Cn1ncc2cc(-c3cnc4[nH]ccc4c3N3CCC4(CCCNC4=O)CC3)ccc21 [Compound 006, 9-(5-(1-methyl-1H-indazol-5-yl)-1H-pyrrolo[2,3-b]pyridin-4-yl)-2,9-diazaspiro[5.5]undecan-1-one] | 3 nM
O=C1NCCC12CCN(c1c(-c3ccc4ncnn4c3)cnc3[nH]ccc13)CC2 [Compound 007, 8-(5-([1,2,4]triazolo[1,5-a]pyridin-6-yl)-1H-pyrrolo[2,3-b]pyridin-4-yl)-2,8-diazaspiro[4.5]decan-1-one] | 274 nM
O=C1NCCC12CCN(c1c(-c3ccc4[nH]cnc4c3)cnc3[nH]ccc13)CC2 [Compound 008, 8-(5-(1H-benzo[d]imidazol-5-yl)-1H-pyrrolo[2,3-b]pyridin-4-yl)-2,8-diazaspiro[4.5]decan-1-one] | 4.97 nM
O=C1NCCC12CCN(c1c(-c3ccn4ccnc4c3)cnc3[nH]ccc13)CC2 [Compound 009, 8-(5-(imidazo[1,2-a]pyridin-7-yl)-1H-pyrrolo[2,3-b]pyridin-4-yl)-2,8-diazaspiro[4.5]decan-1-one] | 76.4 nM
Cn1ncc2cc(-c3cnc4[nH]ccc4c3N3CCC4(CC3)CNC4=O)ccc21 [Compound 010, 7-(5-(1-methyl-1H-indazol-5-yl)-1H-pyrrolo[2,3-b]pyridin-4-yl)-2,7-diazaspiro[3.5]nonan-1-one] | 6.3 nM
Cn1ncc2cc(-c3cnc4[nH]ccc4c3N3CCC4(CC3)CNC(=O)O4)ccc21 [Compound 011, 8-(5-(1-methyl-1H-indazol-5-yl)-1H-pyrrolo[2,3-b]pyridin-4-yl)-1-oxa-3,8-diazaspiro[4.5]decan-2-one] | 7 nM
Cn1ncc2cc(-c3cnc4[nH]ccc4c3N3CCC4(CC3)NC(=O)NC4=O)ccc21 [Compound 014, 8-(5-(1-methyl-1H-indazol-5-yl)-1H-pyrrolo[2,3-b]pyridin-4-yl)-1,3,8-triazaspiro[4.5]decane-2,4-dione] | 3 nM
Cn1ncc2cc(-c3cnc4[nH]cnc4c3N3CCC4(CCNC4=O)CC3)ccc21 [Compound 016, 8-(6-(1-methyl-1H-indazol-5-yl)-3H-imidazo[4,5-b]pyridin-7-yl)-2,8-diazaspiro[4.5]decan-1-one] | 10 nM
Cn1ncc2cc(-c3cnc4[nH]ccc4c3N3CCC4(CCNC4=O)C3)ccc21 (stereo not shown) [Compound 017, 7-(5-(1-methyl-1H-indazol-5-yl)-1H-pyrrolo[2,3-b]pyridin-4-yl)-2,7-diazaspiro[4.4]nonan-1-one] | 55 nM
Cn1ncc2cc(-c3cnc4[nH]cc(Cl)c4c3N3CCC4(CCNC4=O)CC3)ccc21 [Compound 018, 8-(3-chloro-5-(1-methyl-1H-indazol-5-yl)-1H-pyrrolo[2,3-b]pyridin-4-yl)-2,8-diazaspiro[4.5]decan-1-one] | 1.73 nM
Cn1ncc2cc(-c3cnc4sccc4c3N3CCC4(CCNC4=O)CC3)ccc21 [Compound 019, 8-(5-(1-methyl-1H-indazol-5-yl)thieno[2,3-b]pyridin-4-yl)-2,8-diazaspiro[4.5]decan-1-one] | 206 nM
Cn1ncc2cc(-c3cnc4[nH]nc(Cl)c4c3N3CCC4(CCNC4=O)CC3)ccc21 [Compound 020] | 1.37 nM
Cc1n[nH]c2ncc(-c3ccc4c(cnn4C)c3)c(N3CCC4(CCNC4=O)CC3)c12 [Compound 021] | 36 nM
